As usually defined, the IC50 is the concentration needed to halve the response being measured.

These results are taken from patent US6093714A, “Tricyclic benzazepine compounds” (priority 1995, dated 2000).

Data set [1] concerns allergic foot-pad edema reaction. The data set is described as follows: Immediate and late phase allergic response inhibition test (allergic foot-pad edema reaction). The format is in vivo, Wister male rats. The settings on record: Rattus norvegicus, 100 mg/kg. Here is the method:
Immediate and late phase allergic response inhibition test
Wister male rats weighing of 200 g were provided. 1010 organisms of Bordetella pertussis and 1 mg of dinitrophenylated ovalbumin (hereinafter abbreviated to "DNP-OA") were intramuscularly administered into the foot pad of the limbs of the rats except for the right hind leg. Further, ten days after the administration, 5 pg/site DNP-OA was subcutaneously administered to the right hind leg to induce allergic foot-pad edema reaction. The inhibitory activity of the test compounds was determined in such a manner that the volume of edema 30 min after the induction of the allergic reaction was regarded as an immediate phase allergic response and the volume of edema 8 hr after the induction of the allergic reaction was regarded as a late phase allergic response. Each test compound was dissolved or suspended in a 0.25% Tween 80 solution, and the solution or suspension was orally administered at a dose of 20 mg/kg 10 min before the induction of the allergic reaction.
Only the 0.25% Tween 80 solution was administered to the control group of rats not treated with any test compound, and 100 mg/kg sodium cromoglicate was subcutaneously or orally administered to the positive control group of rats.
The percentage inhibition of the allergic foot-pad edema reaction was determined by the following equation.
Percentage inhibition of allergic foot-pad edema reaction=(A-B)/A×100
wherein A: average edema volume for the non-treated control group of rats; and
B: average edema volume for the group of rats with the test compound administered.

For data set [2] the following is noted: cited from earlier work.
The next data set concerns intraperitoneal cells. The data set is described as follows: Histamine release reaction inhibition test (rat intraperitoneal cells, DNP-As antigen). The note with it: 10^-5 to 10^-10 M test compound, DNP-As stimulated intraperitoneal cells, 10^5 cells/ml, read-out: IC50 (dose of the test compound required for inhibiting the histamine release reaction by 50%). The format is cell-based, Wistar male rat. Here is the method:
Histamine release reaction inhibition test
(1) Preparation of antiserum
Rat anti-dinitrophenylated ascaris protein (hereinafter referred to as "DNP-As") serum was prepared according to the method established by Tada et al. (Tada, T. and Okumura, K., J. Immun. 106(4), 1971). Specifically, 1010 organisms of Bordetella pertussis and 1 mg of DNP-As were intramuscularly administered to the foot pad of the limbs of Brown norway male rats weighing 200 g, and, five days after the administration, 0.5 mg of DNP-As was intramuscularly administered to the back. Three days after that, blood was collected to prepare an antiserum. The titer of the antiserum was determined by using a 48-hr passive cutaneous anaphylaxis reaction using a rat and found to be 1:1000 to 1:2000.
(2) Induction of histamine release reaction and release reaction inhibitory activity
The above serum was diluted four times with physiological brine, and 1 ml of the diluted serum was intraperitoneally administered to a Wistar male rat. Two days after the administration, the abdominal cavity was washed with phosphate buffer, and intraperitoneal cells were collected. The cells were adjusted to 10^5 cells/ml and stimulated with 1 pg/ml DNP-As, and the amount of the histamine released on the supernatant was measured by the method established by Shore et al (Shore, P. A., Burkhalter, A. H. and Chon Jr. V. H. J. Pharm. Exp. Ther., 127 , 182-186 (1959)).
The amount of the released histamine treated with 10^-5 to 10^-10 M test compound was compared with that of non-treated group. The dose of the test compound required for inhibiting the histamine release reaction by 50% (IC50) was calculated based on the percentage inhibition. IC50 of sodium cromoglicate was used as a control.

Read-outs that look alike come from different tables or passages of the source.

On to `O=C(O)c1cc(=O)c2c(OCC(O)COc3cccc4oc(C(=O)O)cc(=O)c34)cccc2o1` [Sodium cromoglicate, reference compound], for which the inhibition in vivo at 100 mg/kg in data set [1] (0.5 h, oral administration, edema 30 min after induction, read-out: Inhibition (%) Immediate phase response) was found to be 16%; in data set [1] (sc, 0.5 h, subcutaneous administration, edema 30 min after induction, read-out: Inhibition (%) Immediate phase response), 75%; in data set [1] (sc, subcutaneous administration, edema 8 hr after induction, read-out: Inhibition (%) Late phase response), 53%; in data set [1] (oral administration, edema 8 hr after induction, read-out: Inhibition (%) Late phase response), 20%. In addition, the oral absorption entry in data set [2] is given as “poor oral absorption”. The IC50 in the data set on intraperitoneal cells was found to be 1800 nM.
